What all share (type): functional
In one assay the test system is Candida albicans. The experiment in a line: Antifungal activity against Candida albicans after 48 hrs by spectrophotometry.
The next assay deals with Candida parapsilosis. As to the kind of experiment: Antifungal activity against Candida parapsilosis after 48 hrs by spectrophotometry. Conditions: Lodderomyces parapsilosis.
A further assay concerns Cryptococcus neoformans. The experiment in a line: Antifungal activity against Cryptococcus neoformans after 48 hrs by spectrophotometry.
In a further assay the test system is Nakaseomyces glabratus. As to the kind of experiment: Antifungal activity against Candida glabrata after 48 hrs by spectrophotometry.
Another assay relates to Aspergillus fumigatus. As to the kind of experiment: Antifungal activity against Aspergillus fumigatus after 48 hrs by spectrophotometry.
The subject of another assay is Trichophyton rubrum. The experiment in a line: Antifungal activity against Trichophyton rubrum after 48 hrs by spectrophotometry.
A further assay deals with Nannizzia gypsea. The experiment in a line: Antifungal activity against Microsporum gypseum after 48 hrs by spectrophotometry.

Each structure is given as a SMILES string. In brackets after ≈: the same amount, converted by molar mass.

On to `OC(CN1CCC(c2nc(-c3cccs3)no2)CC1)(Cn1cncn1)c1ccc(F)cc1F` (configuration not stated), for which the MIC80 was 0.063 µg/mL (≈ 0.133 µM) against Candida albicans; 2 µg/mL (≈ 4.23 µM) in the assay with Candida parapsilosis; 1 µg/mL (≈ 2.12 µM) with Cryptococcus neoformans; 2 µg/mL (≈ 4.23 µM) in the assay with Nakaseomyces glabratus; 2 µg/mL (≈ 4.23 µM) against Aspergillus fumigatus; 1 µg/mL (≈ 2.12 µM) with Trichophyton rubrum. Moreover, the MIC80 in the assay with Nannizzia gypsea stood at 2 µg/mL (≈ 4.23 µM).
As for `Cc1cccc(-c2nnc(C3CCN(CC(O)(Cn4cncn4)c4ccc(F)cc4F)CC3)o2)c1` (configuration not stated), the MIC80 in the assay with Candida albicans turned out to be 0.25 µg/mL (≈ 0.52 µM); with Candida parapsilosis, 2 µg/mL (≈ 4.16 µM); with Cryptococcus neoformans, 1 µg/mL (≈ 2.08 µM); with Nakaseomyces glabratus, 2 µg/mL (≈ 4.16 µM); against Aspergillus fumigatus, 2 µg/mL (≈ 4.16 µM); against Trichophyton rubrum, 2 µg/mL (≈ 4.16 µM). Moreover, the MIC80 in the assay with Nannizzia gypsea was determined as 0.5 µg/mL (≈ 1.04 µM).
`OC(CN1CCC(c2nc(-c3ccc(F)cc3)no2)CC1)(Cn1cncn1)c1ccc(F)cc1F` (configuration not stated): the MIC80 in the assay on Candida albicans worked out at 0.5 µg/mL (≈ 1.03 µM); in the assay with Candida parapsilosis it was 2 µg/mL (≈ 4.13 µM); in the assay with Cryptococcus neoformans, 1 µg/mL (≈ 2.06 µM); in the assay on Nakaseomyces glabratus it was 2 µg/mL (≈ 4.13 µM); against Aspergillus fumigatus it was 2 µg/mL (≈ 4.13 µM); with Trichophyton rubrum, 4 µg/mL (≈ 8.26 µM). The compound further showed an MIC80 against Nannizzia gypsea of 1 µg/mL (≈ 2.06 µM).
As to `OC(CN1CCC(c2nc(-c3ccc(C(F)(F)F)cc3)no2)CC1)(Cn1cncn1)c1ccc(F)cc1F` (configuration not stated), the MIC80 is 0.5 µg/mL (≈ 0.935 µM) with Candida albicans; 4 µg/mL (≈ 7.48 µM) against Candida parapsilosis; 2 µg/mL (≈ 3.74 µM) in the assay with Cryptococcus neoformans; 2 µg/mL (≈ 3.74 µM) with Nakaseomyces glabratus; 2 µg/mL (≈ 3.74 µM) with Aspergillus fumigatus; 4 µg/mL (≈ 7.48 µM) with Trichophyton rubrum. In the assay on Nannizzia gypsea, this compound registered an MIC80 of 2 µg/mL (≈ 3.74 µM).
As for `OC(CN1CCC(c2nnc(-c3ccncc3)o2)CC1)(Cn1cncn1)c1ccc(F)cc1F` (configuration not stated), the MIC80 amounted to 2 µg/mL (≈ 4.28 µM) against Candida albicans; 16 µg/mL (≈ 34.2 µM) in the assay with Candida parapsilosis; 4 µg/mL (≈ 8.56 µM) with Cryptococcus neoformans; 16 µg/mL (≈ 34.2 µM) against Nakaseomyces glabratus; 16 µg/mL (≈ 34.2 µM) in the assay with Aspergillus fumigatus; 32 µg/mL (≈ 68.5 µM) in the assay on Trichophyton rubrum. In the assay with Nannizzia gypsea, this compound gave an MIC80 of 4 µg/mL (≈ 8.56 µM).
As for `COc1ccc(-c2nnc(C3CCN(CC(O)(Cn4cncn4)c4ccc(F)cc4F)CC3)o2)cc1` (configuration not stated), the MIC80 in the assay on Candida albicans is 0.063 µg/mL (≈ 0.127 µM); in the assay with Candida parapsilosis, 1 µg/mL (≈ 2.01 µM); in the assay with Cryptococcus neoformans, 0.5 µg/mL (≈ 1.01 µM); against Nakaseomyces glabratus it was 2 µg/mL (≈ 4.03 µM); in the assay on Aspergillus fumigatus, 2 µg/mL (≈ 4.03 µM); in the assay on Trichophyton rubrum, 1 µg/mL (≈ 2.01 µM). Also, the MIC80 in the assay on Nannizzia gypsea worked out at 1 µg/mL (≈ 2.01 µM).
Consider `OC(CN1CCC(c2nnc(-c3cccc4ccccc34)o2)CC1)(Cn1cncn1)c1ccc(F)cc1F` (configuration not stated), for which the MIC80 amounted to 1 µg/mL (≈ 1.94 µM) in the assay on Candida albicans; 8 µg/mL (≈ 15.5 µM) in the assay with Candida parapsilosis; 4 µg/mL (≈ 7.74 µM) in the assay with Cryptococcus neoformans; 8 µg/mL (≈ 15.5 µM) against Nakaseomyces glabratus; 8 µg/mL (≈ 15.5 µM) in the assay on Aspergillus fumigatus; 4 µg/mL (≈ 7.74 µM) against Trichophyton rubrum. This compound showed an MIC80 against Nannizzia gypsea of 8 µg/mL (≈ 15.5 µM).
In the case of `OC(CN1CCC(c2nnc(-c3ccccc3)o2)CC1)(Cn1cncn1)c1ccc(F)cc1F` (configuration not stated), the MIC80 in the assay on Candida albicans turned out to be 0.125 µg/mL (≈ 0.268 µM); against Candida parapsilosis, 0.5 µg/mL (≈ 1.07 µM); with Cryptococcus neoformans, 0.25 µg/mL (≈ 0.536 µM); against Nakaseomyces glabratus, 2 µg/mL (≈ 4.29 µM); with Aspergillus fumigatus it was 2 µg/mL (≈ 4.29 µM); with Trichophyton rubrum, 1 µg/mL (≈ 2.14 µM). In addition, the MIC80 against Nannizzia gypsea stood at 1 µg/mL (≈ 2.14 µM).
As to `OC(CN1CCC(c2nnc(-c3ccc(Cl)cc3)o2)CC1)(Cn1cncn1)c1ccc(F)cc1F` (configuration not stated), the MIC80 came to 0.5 µg/mL (≈ 0.998 µM) in the assay with Candida albicans; 4 µg/mL (≈ 7.99 µM) against Candida parapsilosis; 1 µg/mL (≈ 2 µM) against Cryptococcus neoformans; 8 µg/mL (≈ 16 µM) in the assay with Nakaseomyces glabratus; 8 µg/mL (≈ 16 µM) with Aspergillus fumigatus; 8 µg/mL (≈ 16 µM) against Trichophyton rubrum. Besides, the MIC80 against Nannizzia gypsea turned out to be 64 µg/mL (≈ 128 µM).
`OC(CN1CCC(c2nnc(-c3ccc(F)cc3)o2)CC1)(Cn1cncn1)c1ccc(F)cc1F` (configuration not stated): the MIC80 is 0.063 µg/mL (≈ 0.13 µM) against Candida albicans; 0.5 µg/mL (≈ 1.03 µM) in the assay on Candida parapsilosis; not above 0.125 µg/mL with Cryptococcus neoformans; 1 µg/mL (≈ 2.06 µM) with Nakaseomyces glabratus; 1 µg/mL (≈ 2.06 µM) with Aspergillus fumigatus; 2 µg/mL (≈ 4.13 µM) in the assay on Trichophyton rubrum. This compound also yielded an MIC80 against Nannizzia gypsea of 2 µg/mL (≈ 4.13 µM).
On to `COc1cccc(-c2noc(C3CCN(CC(O)(Cn4cncn4)c4ccc(F)cc4F)CC3)n2)c1` (configuration not stated), for which the MIC80 stood at 1 µg/mL (≈ 2.01 µM) with Candida albicans; 4 µg/mL (≈ 8.06 µM) against Candida parapsilosis; 2 µg/mL (≈ 4.03 µM) in the assay with Cryptococcus neoformans; 4 µg/mL (≈ 8.06 µM) against Nakaseomyces glabratus; 4 µg/mL (≈ 8.06 µM) with Aspergillus fumigatus; 4 µg/mL (≈ 8.06 µM) with Trichophyton rubrum. The compound further yielded an MIC80 against Nannizzia gypsea of 4 µg/mL (≈ 8.06 µM).

The term MIC80 denotes an inhibitory concentration at the 80% level, which refers to growth in some studies and to a panel of isolates in others. High values mean weaker potency, low ones greater potency.
